Source: ChEMBL document CHEMBL1137881, “Synthesis of acyloxymethyl ester prodrugs of the transferable protein farnesyl transferase substrate farnesyl methylenediphosphonate” (Bioorg Med Chem Lett, 2004)

Target: Protein farnesyltransferase (Homo sapiens, UniProt P49354+P49356)
Assay: Inhibition of Farnesyltransferase
Format: protein-complex assay

IC50: 160 nM
SMILES: CC(C)=CCC/C(C)=C/CC/C(C)=C/COP(=O)(O)CP(=O)(O)O [FARNESYL METHYLENEDIPHOSPHONATE]
